Assay results reported in PubChem BioAssay (NCI).
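The compound was tested at five concentrations on cells cultured in 96-well plates, with a 48-hour exposure period. TGI is the concentration that stops growth completely.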

How the values were obtained:
Test in all cases: NCI-60 cell line screen, 48 h
[1] = system: SN12C renal
[2] = system: HT29 colon
[3] = system: KM12 colon
[4] = system: SNB-19 CNS
[5] = system: SF-268 CNS
[6] = system: NCI-H226 lung
[7] = system: K-562 leukemia
[8] = system: LOX IMVI melanoma
[9] = system: HCT-116 colon
[10] = system: SK-MEL-5 melanoma
[11] = system: UACC-62 melanoma
[12] = system: TK-10 renal
[13] = system: MCF7 breast
[14] = system: SW-620 colon
[15] = system: A549 NSCLC
[16] = system: OVCAR-8 ovarian
[17] = system: COLO 205 colon
[18] = system: NCI/ADR-RES ovarian
[19] = system: UACC-257 melanoma
[20] = system: SNB-75 CNS
[21] = system: 786-0 renal
[22] = system: HL-60(TB) leukemia
[23] = system: A498 renal
[24] = system: SK-OV-3 ovarian
[25] = system: U251 CNS
[26] = system: M14 melanoma
[27] = system: OVCAR-5 ovarian
[28] = system: MOLT-4 leukemia
[29] = system: NCI-H23 lung
[30] = system: MDA-MB-231 breast
[31] = system: MDA-N
[32] = system: RPMI-8226 leukemia
[33] = system: SR leukemia
[34] = system: UO-31 renal
[35] = system: SK-MEL-28 melanoma
[36] = system: EKVX NSCLC
[37] = system: HCT-15 colon
[38] = system: DU-145 prostate
[39] = system: NCI-H460 lung
[40] = system: RXF 393 renal
[41] = system: OVCAR-3 ovarian
[42] = system: SK-MEL-2 melanoma
[43] = system: IGROV1 ovarian
[44] = system: HCC-2998 colon
[45] = system: MDA-MB-435
[46] = system: T-47D breast
[47] = system: SF-539 CNS
[48] = system: PC-3 prostate
[49] = system: OVCAR-4 ovarian
[50] = system: CCRF-CEM leukemia
[51] = system: HS 578T breast
[52] = system: CAKI-1 renal
[53] = system: BT-549 breast
[54] = system: NCI-H522 lung
[55] = system: MALME-3M melanoma
[56] = system: HOP-92 NSCLC
[57] = system: ACHN renal
[58] = system: HOP-62 NSCLC
[59] = system: SF-295 CNS

CSc1n[nH]c(N)c1C(=O)Nc1ccccc1
TGI [1]: > 100 µM
TGI [2]: > 100 µM
TGI [3]: > 100 µM
TGI [4]: > 100 µM
TGI [5]: > 100 µM
TGI [6]: > 100 µM
TGI [7]: > 100 µM
TGI [8]: > 100 µM
TGI [9]: > 100 µM
TGI [10]: > 100 µM
TGI [11]: > 100 µM
TGI [12]: > 100 µM
TGI [13]: > 100 µM
TGI [14]: > 100 µM
TGI [15]: > 100 µM
TGI [16]: > 100 µM
TGI [17]: > 100 µM
TGI [18]: > 100 µM
TGI [19]: > 100 µM
TGI [20]: > 100 µM
TGI [21]: > 100 µM
TGI [22]: > 100 µM
TGI [23]: > 100 µM
TGI [24]: > 100 µM
TGI [25]: > 100 µM
TGI [26]: > 100 µM
TGI [27]: > 100 µM
TGI [28]: > 100 µM
TGI [29]: > 100 µM
TGI [30]: > 100 µM
TGI [31]: > 100 µM
TGI [32]: > 100 µM
TGI [33]: > 100 µM
TGI [34]: > 100 µM
TGI [35]: > 100 µM
TGI [36]: > 100 µM
TGI [37]: > 100 µM
TGI [38]: > 100 µM
TGI [39]: > 100 µM
TGI [40]: > 100 µM
TGI [41]: > 100 µM
TGI [42]: > 100 µM
TGI [43]: > 100 µM
TGI [44]: > 100 µM
TGI [45]: > 100 µM
TGI [46]: > 100 µM
TGI [47]: > 100 µM
TGI [48]: > 100 µM
TGI [49]: > 100 µM
TGI [50]: > 100 µM
TGI [51]: > 100 µM
TGI [52]: > 100 µM
TGI [53]: > 100 µM
TGI [54]: > 100 µM
TGI [55]: > 100 µM

COc1cc2c(cc1OC)-c1cc3ccccc3c(=O)n1CC2
TGI [1]: > 100 µM
TGI [2]: 98.9 µM
TGI [3]: 53.5 µM
TGI [4]: > 100 µM
TGI [5]: > 100 µM
TGI [6]: > 100 µM
TGI [7]: > 100 µM
TGI [8]: 27.5 µM
TGI [9]: 33.9 µM
TGI [10]: 23.5 µM
TGI [11]: 39 µM
TGI [12]: 50.7 µM
TGI [13]: > 100 µM
TGI [14]: > 100 µM
TGI [15]: > 100 µM
TGI [16]: > 100 µM
TGI [17]: > 100 µM
TGI [18]: > 100 µM
TGI [19]: > 100 µM
TGI [20]: 92 µM
TGI [24]: 74.5 µM
TGI [25]: 97.9 µM
TGI [26]: 80.3 µM
TGI [56]: 63 µM
TGI [27]: > 100 µM
TGI [57]: > 100 µM
TGI [28]: 97 µM
TGI [29]: > 100 µM
TGI [30]: 43.8 µM
TGI [31]: > 100 µM
TGI [32]: 35 µM
TGI [33]: 96.8 µM
TGI [34]: > 100 µM
TGI [35]: 90.5 µM
TGI [36]: > 100 µM
TGI [58]: 37.1 µM
TGI [38]: > 100 µM
TGI [39]: 67.5 µM
TGI [40]: 21.6 µM
TGI [41]: 73.3 µM
TGI [42]: 48.8 µM
TGI [43]: 72.8 µM
TGI [44]: 50.1 µM
TGI [45]: > 100 µM
TGI [46]: 81.5 µM
TGI [47]: 41.9 µM
TGI [48]: 40.6 µM
TGI [49]: > 100 µM
TGI [50]: > 100 µM
TGI [51]: 50.2 µM
TGI [52]: 64.9 µM
TGI [53]: > 100 µM
TGI [54]: 40 µM
TGI [55]: 61.5 µM
TGI [59]: 62.1 µM
